What was measured:
[1] = target: T1, VtrA–VtrC periplasmic domain complex (heterodimer) (Vibrio parahaemolyticus, UniProt Q87GI3+Q87GI4); test: isothermal titration calorimetry; assay type: binding
T1 construct: gene VPA1333; periplasmic domains: VtrC residues 31-161 with N-terminal His6 tag, coexpressed with VtrA residues 161-253 (pACYC-Duet-VtrC/VtrA, E. coli BL21(DE3)); heterodimer, bile acid lies in the beta-barrel, contacts printed are VtrC residues

[2] = target: T2, VtrA–VtrC periplasmic domain complex (heterodimer) (Vibrio parahaemolyticus, UniProt Q87GI3+Q87GI4, Q87GI3:S123A); test: biochemical
T2 construct: gene VPA1333
Description: (§1) isothermal titration calorimetry on VtrA–VtrC periplasmic domain complex (heterodimer)

[3] = target: T3, VtrA–VtrC periplasmic domain complex (heterodimer) (Vibrio parahaemolyticus, UniProt Q87GI3+Q87GI4, Q87GI3:Y151A); test: biochemical
T3 construct: gene VPA1333
Description: as §1

[4] = target: T4, VtrA–VtrC periplasmic domain complex (heterodimer) (Vibrio parahaemolyticus, UniProt Q87GI3+Q87GI4, Q87GI3:Y151F); test: biochemical
T4 construct: gene VPA1333
Description: as §1

[5] = target: T5, VtrA–VtrC periplasmic domain complex (heterodimer) (Vibrio parahaemolyticus, UniProt Q87GI3+Q87GI4, Q87GI3:H50A); test: biochemical
T5 construct: gene VPA1333
Description: as §1

[6] = target: T6, VtrA–VtrC periplasmic domain complex (heterodimer) (Vibrio parahaemolyticus, UniProt Q87GI3+Q87GI4, Q87GI3:Y81A); test: biochemical
T6 construct: gene VPA1333
Description: as §1

[7] = target: T1, VtrA–VtrC periplasmic domain complex (heterodimer); test: isothermal titration calorimetry; crystal structure of the complex also solved ([…] Å); assay type: binding

Row | SMILES | Kd [1] [nM] | Kd [2] [nM] | Kd [3] [nM] | Kd [4] [nM] | Kd [5] [nM] | Kd [6] [nM] | Kd [7] [nM]
1 | C[C@H](CCC(=O)O)[C@H]1CC[C@H]2[C@@H]3[C@H](O)C[C@@H]4C[C@H](O)CC[C@]4(C)[C@H]3C[C@H](O)[C@]12C [CA, cholate] | 377 |  |  |  |  |  | 
2 | C[C@H](CCC(=O)O)[C@H]1CC[C@H]2[C@@H]3[C@H](O)C[C@@H]4C[C@H](O)CC[C@]4(C)[C@H]3CC[C@]12C [CDC, chenodeoxycholate] |  | 202 | 2280 | 1170 | 904 | 731 | 310
3 | C[C@H](CCC(=O)O)[C@H]1CC[C@H]2[C@@H]3CC[C@@H]4C[C@H](O)CC[C@]4(C)[C@H]3C[C@H](O)[C@]12C [DC, deoxycholate] | 232 |  |  |  |  |  | 
4 | C[C@H](CCC(=O)NCC(=O)O)[C@H]1CC[C@H]2[C@@H]3[C@H](O)C[C@@H]4C[C@H](O)CC[C@]4(C)[C@H]3CC[C@]12C [GCDC, glycochenodeoxycholate] | 211 |  |  |  |  |  | 
5 | C[C@H](CCC(=O)NCCS(=O)(=O)O)[C@H]1CC[C@H]2[C@@H]3CC[C@@H]4C[C@H](O)CC[C@]4(C)[C@H]3C[C@H](O)[C@]12C [TDC, taurodeoxycholate] | 129 | 91.2 | 2500 | 873 | 301 | 1190 | 

Source: article PMC10140157, “Molecular determinants for differential activation of the bile acid receptor from the pathogen Vibrio parahaemolyticus” (The Journal of Biological Chemistry, 2023)
